Measurements taken from PubChem BioAssay (NCI).
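GI50 marks 50% less growth. At the TGI there is no net growth.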

Columns and labels:
Assay in all cases: NCI anticancer screen, dose series, 384-well format
SF-295 CNS = system: SF-295 CNS
SK-MEL-28 melanoma = system: SK-MEL-28 melanoma
UO-31 renal = system: UO-31 renal
RXF 393 renal = system: RXF 393 renal
IGROV1 ovarian = system: IGROV1 ovarian
NCI-H23 lung = system: NCI-H23 lung
OVCAR-5 ovarian = system: OVCAR-5 ovarian
A498 renal = system: A498 renal
SF-268 CNS = system: SF-268 CNS
ACHN renal = system: ACHN renal
DU-145 prostate = system: DU-145 prostate
PC-3 prostate = system: PC-3 prostate
MDA-MB-435 melanoma = system: MDA-MB-435 melanoma
KM12 colon = system: KM12 colon
HL-60(TB) leukemia = system: HL-60(TB) leukemia
SF-539 CNS = system: SF-539 CNS
TK-10 renal = system: TK-10 renal
NCI-H322M lung = system: NCI-H322M lung
UACC-257 melanoma = system: UACC-257 melanoma
OVCAR-4 ovarian = system: OVCAR-4 ovarian
OVCAR-8 ovarian = system: OVCAR-8 ovarian
HCT-15 colon = system: HCT-15 colon
NCI/ADR-RES ovarian = system: NCI/ADR-RES ovarian
A549 NSCLC = system: A549 NSCLC
CCRF-CEM leukemia = system: CCRF-CEM leukemia
MOLT-4 leukemia = system: MOLT-4 leukemia
SW-620 colon = system: SW-620 colon
M14 melanoma = system: M14 melanoma
OVCAR-3 ovarian = system: OVCAR-3 ovarian
HS 578T breast = system: HS 578T breast
SR leukemia = system: SR leukemia
HOP-62 NSCLC = system: HOP-62 NSCLC
MCF7 breast = system: MCF7 breast
UACC-62 melanoma = system: UACC-62 melanoma
RPMI-8226 leukemia = system: RPMI-8226 leukemia
HOP-92 NSCLC = system: HOP-92 NSCLC
COLO 205 colon = system: COLO 205 colon
HCC-2998 colon = system: HCC-2998 colon
NCI-H226 lung = system: NCI-H226 lung
MDA-MB-231 breast = system: MDA-MB-231 breast
HT29 colon = system: HT29 colon
MALME-3M melanoma = system: MALME-3M melanoma
SN12C renal = system: SN12C renal
SK-MEL-5 melanoma = system: SK-MEL-5 melanoma
SNB-75 CNS = system: SNB-75 CNS
LOX IMVI melanoma = system: LOX IMVI melanoma
786-0 renal = system: 786-0 renal
NCI-H460 NSCLC = system: NCI-H460 NSCLC
K-562 leukemia = system: K-562 leukemia
EKVX NSCLC = system: EKVX NSCLC
BT-549 breast = system: BT-549 breast
CAKI-1 renal = system: CAKI-1 renal
SK-OV-3 ovarian = system: SK-OV-3 ovarian
SNB-19 CNS = system: SNB-19 CNS
NCI-H522 lung = system: NCI-H522 lung
MDA-MB-468 breast = system: MDA-MB-468 breast

`C[C@@H]1CCc2ncc(F)cc2[C@H]2CCCN2c2ccn3ncc(c3n2)C(=O)N1` showed a GI50 (SF-295 CNS) of 30.1 µM, a TGI (SF-295 CNS) of over 100 µM and a GI50 (SK-MEL-28 melanoma) of 70.2 µM. It also gave a TGI (SK-MEL-28 melanoma) of over 100 µM, a GI50 (UO-31 renal) of over 100 µM and a TGI (UO-31 renal) of over 100 µM. For the same compound, the GI50 (RXF 393 renal) was 3.44 µM, the TGI (RXF 393 renal) was over 100 µM and the GI50 (IGROV1 ovarian) was 30.9 µM. For the same compound, the TGI (IGROV1 ovarian) was over 100 µM, the GI50 (NCI-H23 lung) was 93.8 µM and the TGI (NCI-H23 lung) was over 100 µM. For the same compound, the GI50 (OVCAR-5 ovarian) was 32.6 µM, the TGI (OVCAR-5 ovarian) was over 100 µM and the GI50 (A498 renal) was 12.3 µM. It also gave a TGI (A498 renal) of over 100 µM, a GI50 (SF-268 CNS) of 94.1 µM and a TGI (SF-268 CNS) of over 100 µM. It also gave a GI50 (ACHN renal) of 28 µM, a TGI (ACHN renal) of over 100 µM and a GI50 (DU-145 prostate) of over 100 µM. For the same compound, the TGI (DU-145 prostate) was over 100 µM, the GI50 (PC-3 prostate) was over 100 µM and the TGI (PC-3 prostate) was over 100 µM. For the same compound, the GI50 (MDA-MB-435 melanoma) was 57.2 µM, the TGI (MDA-MB-435 melanoma) was over 100 µM and the TGI (KM12 colon) was over 100 µM. The GI50 (HL-60(TB) leukemia) was 63.1 µM, the TGI (HL-60(TB) leukemia) was over 100 µM and the GI50 (SF-539 CNS) was 82.1 µM. The TGI (SF-539 CNS) was over 100 µM, the GI50 (TK-10 renal) was over 100 µM and the TGI (TK-10 renal) was over 100 µM. It also gave a GI50 (NCI-H322M lung) of over 100 µM, a TGI (NCI-H322M lung) of over 100 µM and a GI50 (UACC-257 melanoma) of 63.3 µM. The TGI (UACC-257 melanoma) was over 100 µM, the GI50 (OVCAR-4 ovarian) was 10.3 µM and the TGI (OVCAR-4 ovarian) was 96.2 µM. For the same compound, the GI50 (OVCAR-8 ovarian) was over 100 µM, the TGI (OVCAR-8 ovarian) was over 100 µM and the GI50 (HCT-15 colon) was over 100 µM. It also gave a TGI (HCT-15 colon) of over 100 µM, a GI50 (NCI/ADR-RES ovarian) of over 100 µM and a TGI (NCI/ADR-RES ovarian) of over 100 µM. The GI50 (A549 NSCLC) was 61.9 µM, the TGI (A549 NSCLC) was over 100 µM and the GI50 (CCRF-CEM leukemia) was 8.73 µM. It also gave a TGI (CCRF-CEM leukemia) of over 100 µM, a GI50 (MOLT-4 leukemia) of 5.07 µM and a TGI (MOLT-4 leukemia) of 20.4 µM. For the same compound, the GI50 (SW-620 colon) was over 100 µM, the TGI (SW-620 colon) was over 100 µM and the GI50 (M14 melanoma) was 28.8 µM. The TGI (M14 melanoma) was over 100 µM, the GI50 (OVCAR-3 ovarian) was 48.4 µM and the TGI (OVCAR-3 ovarian) was over 100 µM. The GI50 (HS 578T breast) was 7.78 µM, the TGI (HS 578T breast) was over 100 µM and the GI50 (SR leukemia) was 1.63 µM. The TGI (SR leukemia) was 3.2 µM, the GI50 (HOP-62 NSCLC) was 63.4 µM and the TGI (HOP-62 NSCLC) was over 100 µM. It also gave a GI50 (MCF7 breast) of 18.5 µM, a TGI (MCF7 breast) of over 100 µM and a GI50 (UACC-62 melanoma) of 97.9 µM. It also gave a TGI (UACC-62 melanoma) of over 100 µM, a GI50 (RPMI-8226 leukemia) of 2.36 µM and a TGI (RPMI-8226 leukemia) of over 100 µM. For the same compound, the GI50 (HOP-92 NSCLC) was 14.6 µM, the TGI (HOP-92 NSCLC) was over 100 µM and the GI50 (COLO 205 colon) was 64.9 µM. The TGI (COLO 205 colon) was over 100 µM, the GI50 (HCC-2998 colon) was over 100 µM and the TGI (HCC-2998 colon) was over 100 µM. For the same compound, the GI50 (NCI-H226 lung) was 5.37 µM, the TGI (NCI-H226 lung) was over 100 µM and the GI50 (MDA-MB-231 breast) was 18.1 µM. For the same compound, the TGI (MDA-MB-231 breast) was over 100 µM, the GI50 (HT29 colon) was 75.5 µM and the TGI (HT29 colon) was over 100 µM. For the same compound, the GI50 (MALME-3M melanoma) was 4.11 µM, the TGI (MALME-3M melanoma) was over 100 µM and the GI50 (SN12C renal) was 20.8 µM. It also gave a TGI (SN12C renal) of over 100 µM, a GI50 (SK-MEL-5 melanoma) of over 100 µM and a TGI (SK-MEL-5 melanoma) of over 100 µM. The GI50 (SNB-75 CNS) was 25.4 µM, the TGI (SNB-75 CNS) was over 100 µM and the GI50 (LOX IMVI melanoma) was over 100 µM. The TGI (LOX IMVI melanoma) was over 100 µM, the GI50 ([…]-0 renal) was 23.6 µM and the TGI (786-0 renal) was over 100 µM. The GI50 (NCI-H460 NSCLC) was over 100 µM, the TGI (NCI-H460 NSCLC) was over 100 µM and the GI50 (K-562 leukemia) was 7.4 µM. It also gave a TGI (K-562 leukemia) of 49 µM, a GI50 (EKVX NSCLC) of over 100 µM and a TGI (EKVX NSCLC) of over 100 µM. For the same compound, the GI50 (BT-549 breast) was 76.3 µM, the TGI (BT-549 breast) was over 100 µM and the GI50 (CAKI-1 renal) was 56.1 µM. For the same compound, the TGI (CAKI-1 renal) was over 100 µM, the GI50 (SK-OV-3 ovarian) was 65 µM and the TGI (SK-OV-3 ovarian) was over 100 µM. It also gave a GI50 (SNB-19 CNS) of over 100 µM, a TGI (SNB-19 CNS) of over 100 µM and a GI50 (NCI-H522 lung) of 16.2 µM. The TGI (NCI-H522 lung) was over 100 µM, the GI50 (MDA-MB-468 breast) was 17 µM and the TGI (MDA-MB-468 breast) was 92 µM.
